Results reported in article PMC7809101, “Fetal bovine serum albumin inhibits antimicrobial peptide activity and binds drug only in complex with α1-antitrypsin” (Scientific Reports, 2021).

Tests used:
[1] = target: T1, protein A (albumin) (Bos taurus, UniProt P02769); assay: Pulling down of protein A by immobilized biotinylated TP4-A12I,A15I; assay type: binding, bovine; parameters: The homogeneities of collected protein A (albumin), protein B (α1-antitrypsin), protein C (serotransferrin) and protein D complex; from tissue; host or cells: fetal bovine serum (70% ammonium sulfate fraction, FPLC Mono Q); settings: biotinylated peptide on Streptavidin-conjugated beads; PC buffer, room temperature, 30 min
T1 sequence (P02769 25-607): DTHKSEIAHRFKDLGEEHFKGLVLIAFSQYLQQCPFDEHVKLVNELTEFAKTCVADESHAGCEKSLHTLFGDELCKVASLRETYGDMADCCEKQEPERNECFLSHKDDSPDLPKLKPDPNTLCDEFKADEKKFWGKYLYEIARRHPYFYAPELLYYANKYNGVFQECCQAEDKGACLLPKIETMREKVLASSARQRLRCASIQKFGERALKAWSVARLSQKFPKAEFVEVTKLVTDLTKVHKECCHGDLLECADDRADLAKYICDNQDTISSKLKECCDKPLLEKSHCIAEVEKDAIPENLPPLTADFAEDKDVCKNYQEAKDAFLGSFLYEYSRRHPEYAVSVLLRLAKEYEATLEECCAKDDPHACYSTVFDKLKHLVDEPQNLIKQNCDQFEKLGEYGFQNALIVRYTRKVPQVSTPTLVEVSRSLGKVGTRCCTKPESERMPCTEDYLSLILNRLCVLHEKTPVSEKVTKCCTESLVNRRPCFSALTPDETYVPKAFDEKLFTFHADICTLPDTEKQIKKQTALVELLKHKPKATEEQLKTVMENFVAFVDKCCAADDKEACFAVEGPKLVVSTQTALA
Description: (§1) Streptavidin-conjugated beads were incubated with 10 μg of biotinylated TP4-A12I,A15I peptides in 600 μl PC buffer for one hour on a rolling wheel. The immobilized biotinylated AMPs were further mixed with serum components in the indicated 600 μl buffer(s) at room temperature for 30 min on a rolling wheel, then washed twice with 600 μl respective buffer and subjected to SDS-PAGE and Coomassie Blue staining. Specific proteins were excised from SDS-PAGE gel and subjected to in-gel trypsin digestion and liquid chromatography-tandem mass spectrometry.

[2] = target: T2, protein B (α1-antitrypsin) (Bos taurus, UniProt P34955); settings: biolayer interferometry, Octet RED384; immobilized biotinylated TP4-A12I,A15I
T2 sequence (P34955 25-416): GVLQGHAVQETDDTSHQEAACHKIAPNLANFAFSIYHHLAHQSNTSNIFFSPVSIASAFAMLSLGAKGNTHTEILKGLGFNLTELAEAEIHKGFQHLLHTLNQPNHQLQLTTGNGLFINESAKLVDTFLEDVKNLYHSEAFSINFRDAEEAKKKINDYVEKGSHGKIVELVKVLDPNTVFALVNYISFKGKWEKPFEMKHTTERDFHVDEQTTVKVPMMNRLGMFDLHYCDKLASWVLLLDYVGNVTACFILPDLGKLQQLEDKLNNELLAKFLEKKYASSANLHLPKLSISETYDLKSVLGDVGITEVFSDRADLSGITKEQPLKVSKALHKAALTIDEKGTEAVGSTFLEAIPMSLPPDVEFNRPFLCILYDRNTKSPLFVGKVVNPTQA
Description: (§4) The biolayer interferometry were measured by an Octet RED384 instrument (ForteBio). […] Serial dilutions of serum components in 200 μl PC buffer were used as analyte. Affinity (Kd) and kinetic parameters (kon and koff) were calculated from a global fit (1:1) of the data using the Octet RED384 software[27].

[3] = target: T3, protein D (albumin and α1-antitrypsin complex) (Bos taurus, UniProt P02769+P34955); assay: Pulling down of protein D by immobilized biotinylated TP4-A12I,A15I; assay type: binding, bovine
T3 construct: The active components were further purified by fast performance liquid chromatography (FPLC) Mono Q and S12 column chromatography from the 70% saturated fraction; from tissue; host or cells: fetal bovine serum (70% ammonium sulfate fraction, FPLC Mono Q and Superose 12)
T3 sequence (P02769 25-607, one chain of several): as the sequence (P02769 25-607) above
Description: as §1

[4] = target: T3, protein D (albumin and α1-antitrypsin complex); assay: Fluorescence emission spectrum (blue shift), protein D; assay type: binding, bovine; settings: protein D 0.75 μM, PC buffer, 25 °C, 30 min; excitation 285 nm, emission 300–450 nm; reagent up to: sarkosyl 320, TP4-A12I,A15I 120, ibuprofen 24, phenytoin 20 μM
Description: (§2) The mixtures were excited by 285 nm and its emission spectra were recorded between 300 and 450 nm using a temperature-controlled fluorimeter (FP8500, Jasco, Japan)[13].

[5] = target: T1, protein A (albumin); assay: Fluorescence emission spectrum (blue shift), protein A; assay type: binding, bovine; parameters: The homogeneities of collected protein A (albumin), protein B (α1-antitrypsin), protein C (serotransferrin) and protein D complex; from tissue; host or cells: fetal bovine serum (70% ammonium sulfate fraction, FPLC Mono Q); settings: protein A 0.75 μM, PC buffer, 25 °C, 30 min; excitation 285 nm, emission 300–450 nm; reagent up to: sarkosyl 320, TP4-A12I,A15I 120, ibuprofen 24, phenytoin 20 μM
Description: as §2

[6] = target: T3, protein D (albumin and α1-antitrypsin complex); assay: Inhibition of the binding of TP4-A12I,A15I to protein D (band shift competition); parameters: species or system bovine
Description: Reagents were added to the protein A and protein D at the indicated concentrations and excited at […] and recorded for the emission spectrum between 300 to 450 nm.
(§3) Various AMPs (4 μg each) were incubated with fetal bovine serum (FBS) components at room temperature in 10 μl PC buffer for 30 min and subjected to horizontal native 8% PAGE, pH8.0 or pH8.8, and Coomassie Blue staining.

[7] = target: T1, protein A (albumin); settings: biolayer interferometry, Octet RED384; immobilized biotinylated TP4-A12I,A15I
Description: as §4

[8] = tested on: crude bovine serum; assay: Pulling down of proteins from crude bovine serum by biotinylated TP4-A12I,A15I; assay type: binding
Description: as §1

[9] = tested on: Escherichia coli K-12 (MG1655); assay: Antimicrobial (bactericidal) activity against E. coli, effect of serum or serum proteins; assay type: cell-based; settings: FBS, PBS, 37 °C (Fig. 1d)
Description: The Gram-negative bacteria Escherichia coli K-12 (MG1655) was cultured and plated in/on Luria–Bertani broth/agar plate (Merck Millipore, Darmstadt, Germany). The Gram-positive Staphylococcus aureus (ATCC 6538P) was cultured and plated in tryptic soy broth/agar (BD, MD, USA). The fungus Candida albicans (ATCC 14,053) was cultured and plated in YM broth/agar (BD, MD, USA). The bacteria were grown overnight, washed, and diluted 1:2000 in phosphate buffered saline (PBS), pH 7.5 or DMEM (Life Biotech, California, USA), pH 7.4. Bacteria (ca. 1 × 10^6 colony-forming units, cfu) were mixed with antimicrobial peptides (AMP) in 100 μl PBS and incubated at 37 °C (for bacteria) and at 30 °C (for fungus). Serial dilutions of each AMP-treated bacteria in PBS/DMEM supplemented with FBS were prepared and plated for the determination of remaining viable cells (expressed as cfu). At least three independent experiments were performed for each assay to determine the average value with standard deviation. MBC was defined as the lowest AMP concentration that kills 99.9% of the original inoculum.

[10] = tested on: fetal bovine serum (FBS); assay: Band shift of AMPs by fetal bovine serum; assay type: binding
Description: as §3

[11] = target: T3, protein D (albumin and α1-antitrypsin complex); assay: Biolayer interferometry, protein D; assay type: binding, bovine; settings: biotinylated TP4-A12I,A15I
Description: as §4

[12] = tested on: protein A/D mixture; assay: FPLC S12 gel filtration of proteins A/D mixture with TP4-A12I,A15I; assay type: binding, bovine; settings: reduced SDS-PAGE of eluates
Excerpt: To further investigate the differential binding of AMP to protein A and protein D, the TP4-A12I,A15I and protein A/D was mixed and subjected to gel filtration chromatography (FPLC S12). There was a front shoulder on the elution profile (Fig. 3g).

[13] = target: T3, protein D (albumin and α1-antitrypsin complex); assay: Band shift of AMPs by protein D; assay type: binding, bovine
[14] = target: T3, protein D (albumin and α1-antitrypsin complex); assay: Cross-linking of AMP-protein D complex and Western blotting; assay type: binding, bovine; settings: AMP/protein D cross-linked with glutaraldehyde, PC buffer, 37 °C, 30 min; reduced SDS-PAGE, Western blotting
Description: Small aliquots of serum components (4 μg) in the presence/absence of AMPs (2 μg) were incubated with various concentrations of glutaraldehyde in 10 μl PC buffer at 37 °C for 30 min. […]

[15] = tested on: serum protein; settings: cited from earlier work
Description: Albumin is the most abundant protein in human serum (HSA, 45 mg/ml), followed in descending order by α1-antitrypsin (A1AT, 3.5 mg/ml), transferrin (2.5 mg/ml), α2-macroglobulin (2.5 mg/ml), haptoglobulin (1.8 mg/ml), low-density lipoprotein (LDL, 1.2 mg/ml), α1-acid glycoprotein (AGP, 0.8 mg/ml) and high-density lipoprotein (HDL, 0.6 mg/ml)[11]. These proteins are involved in the transportation of fatty acids, cholesterols, toxins and drugs in the blood stream.

CC[C@H](C)[C@H](NC(=O)[C@H](CO)NC(=O)[C@H](Cc1ccccc1)NC(=O)[C@H](CC(C)C)NC(=O)CNC(=O)CNC(=O)[C@@H](NC(=O)[C@@H](NC(=O)[C@H](Cc1c[nH]cn1)NC(=O)[C@H](Cc1c[nH]cn1)NC(=O)[C@@H](NC(=O)[C@@H](N)Cc1ccccc1)[C@@H](C)CC)[C@@H](C)CC)[C@@H](C)CC)C(=O)NCC(=O)N[C@@H](CCCCN)C(=O)N[C@H](C(=O)N[C@H](C(=O)N[C@@H](Cc1c[nH]cn1)C(=O)N[C@@H](CCCNC(=N)N)C(=O)N[C@@H](CC(C)C)C(=O)N[C@H](C(=O)N[C@@H](CCCNC(=N)N)C(=O)N[C@@H](CCCNC(=N)N)C(=O)N[C@@H](CCCNC(=N)N)C(=O)N[C@@H](CCCNC(=N)N)C(=O)N[C@@H](CCCNC(=N)N)C(=O)O)[C@@H](C)CC)[C@@H](C)CC)[C@@H](C)CC [TP4-A12I,A15I]
binding to protein A (pulling down) [1]: not by protein A | Kd (protein B) [2]: not detectable | binding of protein D in the presence of SDS (dimerization inhibited) ([3]; 2 × SDS, equivalent to 0.125% SDS (w/v), pulling down, 15% non-reducing SDS-PAGE): unable to bind | protein retained on immobilized TP4-A12I,A15I after β-ME wash ([3]; pulled-down protein D dissociated by β-ME (1X = 0.25%), 8% reduced SDS-PAGE): only protein B was still tightly associated | binding of protein D constituents after dissociation by β-ME ([3]; β-ME 0.1–0.4%, pulling down (Fig. 4f)): some protein D constituents were able to bind | blue shift of fluorescence emission spectrum, protein D [4]: blue shift of fluorescence emission spectrum of protein D was observed | blue shift of fluorescence emission spectrum, protein A [5]: did not cause blue shift | proposed binding site in protein D ([6]; inferred from competition and fluorescence): probably at the drug-binding site II of albumin in the protein D complex | Kd (protein A) [7]: not detectable | location of TP4-A12I,A15I-binding components after ammonium sulfate fractionation (pulling down) ([8]; 30%, 50%, 70% and 90% saturation, pulling down): mainly located at the 70% ammonia sulfate saturation fraction | proteins pulled down from crude serum (major band) ([8]; biotinylated TP4-A12I,A15I on Streptavidin-conjugated beads, SDS-PAGE, LC/MS/MS, major band): major band consisted of albumin and α1-antitrypsin | proteins pulled down from crude serum (minor band) ([8]; biotinylated TP4-A12I,A15I on Streptavidin-conjugated beads, SDS-PAGE, LC/MS/MS, minor band): minor band was identified to be apolipoprotein AI (Apo-AI) | susceptibility of bactericidal activity to serum's inhibition (E. coli), relative to TP4 [9]: more susceptible to serum’s inhibition | location of TP4-A12I,A15I-binding components after ammonium sulfate fractionation (band shift) ([10]; 30%, 50%, 70% and 90% saturation, band shift): mainly located at the 70% ammonia sulfate saturation fraction | FBS-mediated band shift of TP4 mutants ([10]; AMP 4 μg with FBS, 10 μl PC buffer, room temperature, 30 min, horizontal native 8% PAGE, pH8.0): enhanced the shift | reversibility and potency of binding of protein D [11]: potent and reversible binding | co-elution with albumin in gel filtration [12]: co-eluted with albumin only at the front shoulder fractions | change of binding ability to protein D by mutation of TP4 ([13]; band shift, Supplementary Fig. 3b, TP4 mutants 4 μg, 8% horizontal native PAGE): increased the binding ability | binding to protein D (band shift, Fig. 7b) ([13]; protein A and D mixture (20 μg each), TP4-A12I,A15I 4 μg, 37 °C, 30 min, native PAGE, pH8.8): only protein D, but not protein A, was bound | AMP-binding ability of protein D reduced by β-ME (band shift) ([13]; protein D reduced by β-ME, band shift (Fig. 4e)): destroyed | association with proteins after cross-linking [14]: associated with protein A, protein B as well as monomeric and dimeric protein D

O=C1NC(=O)C(c2ccccc2)(c2ccccc2)N1 [phenytoin]
bound to serum protein [15]: 90% | blue shift of fluorescence emission spectrum, protein D [4]: no blue shift was seen | blue shift of fluorescence emission spectrum, protein A [5]: no blue shift was seen | inhibition of binding of TP4-A12I,A15I to protein D ([6]; protein A and D mixture (20 μg each) pre-incubated with drug 30 min, then TP4-A12I,A15I (4 μg) at 37 °C, 30 min, native PAGE, pH8.8): not
